“And” between values parts separate entries of the source, which are not always exact repeats. Identical values can stand only once. Toxic doses and inconclusive results are not listed.
Test system: P388 leukemia ip, CD2F1 mice, survival T/C
Test: NCI In Vivo Anticancer Drug Screen. Data for tumor model P388 Leukemia (intraperitoneal) in CD2F1 (CDF1) mice
Details: endpoint: median survival time, higher = longer survival
Summary of the method: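 Mice carrying the transplanted tumor received test compound or vehicle. Survival was recorded in each group, and the value is the treated-group measurement divided by that of the vehicle-treated control group.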

## CC[C@]1(O)C[C@H]2CN(CCc3c([nH]c4ccccc34)[C@@](C(=O)OC)(c3cc4c(cc3OC)N(C=O)[C@H]3[C@@](O)(C(=O)OC)[C@H](OC(C)=O)[C@]5(CC)C=CCN6CC[C@]43[C@@H]65)C2)C1
dose: 0.06 mg/kg/injection, schedule: Q01DX010 (ip), vehicle: saline
  T/C: 168 % of control
dose: 0.08 mg/kg/injection, schedule: Q01DX009 (ip), vehicle: saline
  T/C: 172 % of control
dose: 0.08 mg/kg/injection, schedule: Q01DX009 (ip), vehicle: water
  T/C: 115 % of control
dose: 0.12 mg/kg/injection, schedule: Q01DX009 (ip), vehicle: water
  T/C: 166 % of control
dose: 0.12 mg/kg/injection, schedule: Q04DX003 (ip), vehicle: saline
  T/C: 163 % of control
dose: 0.13 mg/kg/injection, schedule: Q01DX005 (ip), vehicle: saline
  T/C: 161 % of control and 168 % of control
dose: 0.13 mg/kg/injection, schedule: Q01DX010 (ip), vehicle: saline
  T/C: 181 % of control
dose: 0.15 mg/kg/injection, schedule: Q01DX009 (ip), vehicle: saline
  T/C: 190 % of control
dose: 0.18 mg/kg/injection, schedule: Q01DX005 (ip), vehicle: saline
  T/C: 110 % of control and 123 % of control
dose: 0.2 mg/kg/injection, schedule: Q01DX009 (ip), vehicle: saline
  T/C: 169 % of control
dose: 0.2 mg/kg/injection, schedule: Q04DX003 (ip), vehicle: water
  T/C: 196 % of control
dose: 0.22 mg/kg/injection, schedule: Q01DX009 (ip), vehicle: saline
  T/C: 114 % of control
dose: 0.22 mg/kg/injection, schedule: Q01DX009 (ip), vehicle: water
  T/C: 113 % of control
dose: 0.25 mg/kg/injection, schedule: Q01DX001 (ip), vehicle: saline with Tween-80
  T/C: 115 % of control
dose: 0.25 mg/kg/injection, schedule: Q01DX001 (iv), vehicle: saline
  T/C: 122 % of control
dose: 0.25 mg/kg/injection, schedule: Q01DX005 (ip), vehicle: saline
  T/C: 180 % of control and 184 % of control
dose: 0.25 mg/kg/injection, schedule: Q01DX010 (ip), vehicle: saline
  T/C: 177 % of control
dose: 0.25 mg/kg/injection, schedule: Q04DX003 (iv), vehicle: saline
  T/C: 120 % of control
dose: 0.3 mg/kg/injection, schedule: Q01DX005 (ip), vehicle: saline
  T/C: 112 % of control
dose: 0.3 mg/kg/injection, schedule: Q04DX002 (ip), vehicle: saline
  T/C: 150 % of control
dose: 0.33 mg/kg/injection, schedule: Q01DX009 (ip), vehicle: saline
  T/C: 113 % of control
dose: 0.36 mg/kg/injection, schedule: Q01DX009 (ip), vehicle: water
  T/C: 150 % of control
dose: 0.36 mg/kg/injection, schedule: Q04DX003 (ip), vehicle: saline
  T/C: 167 % of control and 169 % of control and 174 % of control
dose: 0.36 mg/kg/injection, schedule: Q04DX003 (iv), vehicle: saline
  T/C: 119 % of control and 123 % of control
dose: 0.37 mg/kg/injection, schedule: Q04DX002 (ip), vehicle: saline
  T/C: 117 % of control
dose: 0.39 mg/kg/injection, schedule: Q04DX002 (ip), vehicle: saline
  T/C: 154 % of control and 164 % of control
dose: 0.4 mg/kg/injection, schedule: Q01DX005 (ip), vehicle: saline
  T/C: 171 % of control
dose: 0.4 mg/kg/injection, schedule: Q04DX003 (ip), vehicle: saline
  T/C: 113 % of control
dose: 0.43 mg/kg/injection, schedule: Q04DX002 (ip), vehicle: saline
  T/C: 153 % of control and 176 % of control
dose: 0.44 mg/kg/injection, schedule: Q04DX002 (ip), vehicle: saline
  T/C: 162 % of control
dose: 0.5 mg/kg/injection, schedule: Q04DX003 (oral), vehicle: water
  T/C: 100 % of control
dose: 0.5 mg/kg/injection, schedule: Q04DX004 (ip), vehicle: saline
  T/C: 169 % of control
dose: 0.53 mg/kg/injection, schedule: Q04DX003 (ip), vehicle: saline
  T/C: 179 % of control and 182 % of control
dose: 0.6 mg/kg/injection, schedule: Q01DX009 (ip), vehicle: saline
  T/C: 200 % of control
dose: 0.6 mg/kg/injection, schedule: Q04DX003 (ip), vehicle: saline
  T/C: 198 % of control
dose: 0.65 mg/kg/injection, schedule: Q04DX002 (ip), vehicle: saline
  T/C: 161 % of control and 168 % of control
dose: 0.67 mg/kg/injection, schedule: Q04DX002 (ip), vehicle: saline
  T/C: 174 % of control
dose: 0.72 mg/kg/injection, schedule: Q04DX002 (ip), vehicle: saline
  T/C: 158 % of control and 192 % of control
dose: 0.8 mg/kg/injection, schedule: Q01DX005 (ip), vehicle: saline
  T/C: 186 % of control
dose: 0.8 mg/kg/injection, schedule: Q04DX003 (ip), vehicle: water
  T/C: 191 % of control
dose: 0.8 mg/kg/injection, schedule: Q04DX003 (iv), vehicle: saline
  T/C: 161 % of control and 168 % of control
dose: 1.0 mg/kg/injection, schedule: Q01DX003 (ip), vehicle: saline
  T/C: 163 % of control
dose: 1.0 mg/kg/injection, schedule: Q04DX002 (ip), vehicle: saline
  T/C: 184 % of control
dose: 1.0 mg/kg/injection, schedule: Q04DX003 (iv), vehicle: saline
  T/C: 182 % of control
dose: 1.0 mg/kg/injection, schedule: Q04DX003 (oral), vehicle: water
  T/C: 106 % of control
dose: 1.08 mg/kg/injection, schedule: Q04DX002 (ip), vehicle: saline
  T/C: 167 % of control and 177 % of control
dose: 1.2 mg/kg/injection, schedule: Q04DX002 (ip), vehicle: saline
  T/C: 169 % of control and 179 % of control
dose: 1.2 mg/kg/injection, schedule: Q04DX003 (iv), vehicle: saline
  T/C: 173 % of control and 177 % of control
dose: 1.3 mg/kg/injection, schedule: Q01DX001 (ip), vehicle: saline
  T/C: 156 % of control
dose: 1.5 mg/kg/injection, schedule: Q04DX002 (ip), vehicle: saline
  T/C: 161 % of control
dose: 1.8 mg/kg/injection, schedule: Q04DX002 (ip), vehicle: saline
  T/C: 191 % of control and 200 % of control
dose: 1.8 mg/kg/injection, schedule: Q04DX003 (iv), vehicle: saline
  T/C: 167 % of control and 182 % of control
dose: 2.0 mg/kg/injection, schedule: Q01DX001 (ip), vehicle: Klucel (hydroxypropylcellulose) (HPC)
  T/C: 155 % of control and 162 % of control
dose: 2.0 mg/kg/injection, schedule: Q01DX001 (ip), vehicle: saline with Tween-80
  T/C: 157 % of control
dose: 2.0 mg/kg/injection, schedule: Q01DX001 (iv), vehicle: saline
  T/C: 154 % of control
dose: 2.0 mg/kg/injection, schedule: Q04DX002 (ip), vehicle: saline
  T/C: 182 % of control
dose: 2.0 mg/kg/injection, schedule: Q04DX003 (oral), vehicle: water
  T/C: 102 % of control
dose: 2.7 mg/kg/injection, schedule: Q04DX003 (ip), vehicle: saline
  T/C: 179 % of control
dose: 2.7 mg/kg/injection, schedule: Q04DX003 (iv), vehicle: saline
  T/C: 100 % of control
dose: 3.0 mg/kg/injection, schedule: Q01DX001 (ip), vehicle: saline
  T/C: 170 % of control and 192 % of control
dose: 3.0 mg/kg/injection, schedule: Q04DX002 (ip), vehicle: saline
  T/C: 99 % of control
dose: 4.0 mg/kg/injection, schedule: Q01DX001 (ip), vehicle: Klucel (hydroxypropylcellulose) (HPC)
  T/C: 167 % of control and 174 % of control
dose: 4.0 mg/kg/injection, schedule: Q01DX001 (ip), vehicle: saline with Tween-80
  T/C: 168 % of control
dose: 4.0 mg/kg/injection, schedule: Q01DX001 (iv), vehicle: saline
  T/C: 121 % of control
dose: 4.0 mg/kg/injection, schedule: Q04DX003 (oral), vehicle: water
  T/C: 110 % of control
dose: 4.5 mg/kg/injection, schedule: Q01DX001 (ip), vehicle: saline
  T/C: 104 % of control
dose: 8.0 mg/kg/injection, schedule: Q01DX001 (ip), vehicle: Klucel (hydroxypropylcellulose) (HPC)
  T/C: 194 % of control

## Cc1cc(N=Nc2ccc(N=Nc3ccc(S(=O)(=O)O)cc3)cc2)cc(C(=O)O)c1O
dose: 12.5 mg/kg/injection, schedule: Q01DX009 (ip), vehicle: saline
  T/C: 114 % of control
dose: 25.0 mg/kg/injection, schedule: Q01DX009 (ip), vehicle: saline
  T/C: 113 % of control
dose: 50.0 mg/kg/injection, schedule: Q01DX009 (ip), vehicle: saline
  T/C: 91 % of control and 96 % of control
dose: 200.0 mg/kg/injection, schedule: Q01DX009 (ip), vehicle: saline
  T/C: 93 % of control

## Cc1onc(-c2ccccc2)c1C
dose: 100.0 mg/kg/injection, schedule: Q01DX001 (ip), vehicle: saline
  T/C: 99 % of control
dose: 200.0 mg/kg/injection, schedule: Q01DX001 (ip), vehicle: saline
  T/C: 102 % of control
dose: 400.0 mg/kg/injection, schedule: Q01DX001 (ip), vehicle: saline
  T/C: 105 % of control

## CCOC(=O)/C(C#N)=C/Nc1cc(C(=O)OC)ccc1C
dose: 50.0 mg/kg/injection, schedule: Q01DX005 (ip), vehicle: saline with Tween-80
  T/C: 88 % of control
dose: 100.0 mg/kg/injection, schedule: Q01DX005 (ip), vehicle: saline with Tween-80
  T/C: 90 % of control

## COC(=O)C(O)NC(N)=O (stereo unspecified)
dose: 50.0 mg/kg/injection, schedule: Q01DX009 (ip), vehicle: saline with Tween-80
  T/C: 98 % of control
dose: 100.0 mg/kg/injection, schedule: Q01DX009 (ip), vehicle: saline with Tween-80
  T/C: 94 % of control
dose: 200.0 mg/kg/injection, schedule: Q01DX009 (ip), vehicle: saline with Tween-80
  T/C: 89 % of control

## CNC(=O)O/N=C(\SC)C(=O)N(C)C
dose: 0.87 mg/kg/injection, schedule: Q01DX005 (ip), vehicle: saline
  T/C: 102 % of control
dose: 1.75 mg/kg/injection, schedule: Q01DX005 (ip), vehicle: saline
  T/C: 100 % of control

Reference: PubChem BioAssay AID330 (DTP/NCI, 2004)
